Measured values reported in patent US10849847B2, “Compositions and methods for treating rosacea and acne” (Foamix Pharmaceuticals Ltd., priority 2016, dated 2020).
Read-outs that look alike come from different tables or passages of the source. Blank lines part the entries; values can stand above or below the compound they belong to.

What was measured:
[1] = cited from earlier work
[2] = in vitro; cited from earlier work
[3] = Procedure: The ratio between MCH and the tested excipient is detailed below. Visual inspection was the major criterion for indication of compatibility. The color of intact MCH suspension is pale yellow; and any change of color (e.g., to dark orange, red, green, brown and black) indicates oxidation or degradation.
Other than hydrogenated castor oil, beeswax, paraffin and hard fat, the aforesaid items listed are oily emollients.
Additives were tested for compatibility with MCH. […] In parallel, antioxidants were added to the MCH suspensions comprising water.

[4] = Doxycycline Hyclate Compatibility Test; assay type: physicochemical
Procedure: (§1) A similar compatibility study was conducted for Doxycycline Hyclate and Doxycycline Monohydrate.
(§2) Different compositions of hydrophilic and hydrophobic solvents containing Doxycycline Hyclate (Set I and Set II) and Doxycycline Monohydrate (Set III) were prepared by weighing the antibiotic in a glass vial and shaking overnight with each solvent investigated.
Group II included Doxycycline Hyclate mixed with various vehicles with addition of antioxidants like alpha tocopherol, butylated hydroxytoluene (BHT), and ascorbic acid.

[5] = Doxycycline Monohydrate Compatibility Test; assay type: physicochemical
Procedure: as §1, §2
A similar compatibility test was performed on another form of Doxycycline—Doxycycline Monohydrate.

[6] = Doxycycline Monohydrate Compatibility Test; assay type: physicochemical; remark: listed apart in the source
[7] = tested after the storage for up to 3 weeks
[8] = mixtures stored at 25° C., 40° C. and 50° C. for two weeks

Compound: Doxycycline hyclate
Lipid solubility [1]: high degree of lipid solubility | Solubility ([1]; in solutions of alkali hydroxides and carbonates): soluble | Solubility ([1]; in water): soluble

Compound: CN(C)c1ccc(O)c2c1C[C@H]1C[C@H]3[C@H](N(C)C)C(O)=C(C(N)=O)C(=O)[C@@]3(O)C(O)=C1C2=O [minocycline]
Skin delivery of minocycline on topical administration [2]: appreciable amounts of the drug to its target site of action (the skin)

Compatibility with MCH ([3]; hydrophilic solvents, MCH:excipient 1:250, 25° C. and 40° C., maximum sixty days): incompatible | Compatibility with Minocycline HCl [3, 7]: No | Compatibility with Doxycycline Hyclate [4, 8]: stable | Compatibility with Doxycycline Hyclate [4, 7]: Yes | Compatibility with Doxycycline Monohydrate [5, 8]: oxidized | Compatibility with Doxycycline Monohydrate [5, 7]: No | Compatibility Results ([6]; Mixtures of 1.04% w/w of Doxycycline Monohydrate stored at 25° C., 40° C., and 50° C. for two weeks): Non compatible | Visual inspection after the storage at 25° C. ([6]; Mixtures of 1.04% w/w of Doxycycline Monohydrate, 25° C., two weeks): Brown | Visual inspection after the storage at 40° C. ([6]; Mixtures of 1.04% w/w of Doxycycline Monohydrate, 40° C., two weeks): Brown | Visual inspection after the storage at 50° C. ([6]; Mixtures of 1.04% w/w of Doxycycline Monohydrate, 50° C., two weeks): Black | Visual inspection at T-0 ([6]; Mixtures of 1.04% w/w of Doxycycline Monohydrate, T-0): bright yellow
Compound: CCO [Ethanol]
Compatibility with Minocycline HCl (observations) ([3]; on dissolution / storage): changed their color from yellow to orange
